These results are taken from patent US9376436B2, “2-(pyridin-2yl)-1, 7-diaza-spiro [4.4] nonane-6-one compound as voltage-gated sodium channels modulators” (CONVERGENCE PHARMACEUTICALS LIMITED, priority 2011, dated 2016).

In the experiment the target is T1, hNaV1.7 (Homo sapiens, UniProt Q15858).
T1 construct: expressed in transfected cells; host or cells: HEK293
Briefly: QPatch NaV1.7 assay (whole-cell patch clamp, QPatch16x). It is filed as cell-based. Particulars: HEK293-hNaV1.7 cells. As for the experimental part:
The compounds of the invention were tested in a QPatch NaV1.7 assay.
HEK293-hNaV1.7 cells were grown in DMEM-F12+10% FBS culture media at 37° C. At a confluency of 50-70% cells were dissociated from culture flasks & triturated to ensure unicellular cell suspension; cell density was measured & adjusted to 2-3×10^6 cells/ml. Recordings were obtained using QPatch16x. The external solution was (in mM): NaCl, 128; KCl, 5; MgCl2, 2; CaCl2, 2; Glucose, 30; HEPES, 15; pH 7.3, 305-315 mOsm. Following seal formation and whole-cell access using internal solution (containing in mM: CsF, 135; EGTA/CsOH, 1/5; HEPES 10; NaCl, 10; pH 7.3, 310-320 mOsM), voltage pulse protocols were applied. Initially a steady state inactivation voltage protocol was used to determine the half-maximal voltage for steady state inactivation (V1/2 SSI). Two holding voltages were used to determine test drug inhibition: −90 mV, where most of the channels are in a closed state; and V1/2 SSI, where half of the channels are inactivated. Currents were elicited […] by stepping to a membrane potential of 0 mV for 20 ms. Four-point cumulative concentration responses were derived by determining the peak current amplitude at each concentration of test drug over 120 second application. Curves were fitted with the Hill equation yielding pIC50 values at −90 mV and V1/2 SSI holding potentials.

Setting [1] is: holding voltage V1/2 SSI (half of channels inactivated), read-out: QP Nav1.7 SSI vhalf pIC50 (converted).
Setting [2] is: holding voltage −90 mV (most channels closed), read-out: QP Nav1.7 −90 mV pIC50 (converted).

Structures can show the parent of a compound that is named as a salt. Where two headings read alike, the source gives them in different places.

T1 sequence (Q15858 whole entry): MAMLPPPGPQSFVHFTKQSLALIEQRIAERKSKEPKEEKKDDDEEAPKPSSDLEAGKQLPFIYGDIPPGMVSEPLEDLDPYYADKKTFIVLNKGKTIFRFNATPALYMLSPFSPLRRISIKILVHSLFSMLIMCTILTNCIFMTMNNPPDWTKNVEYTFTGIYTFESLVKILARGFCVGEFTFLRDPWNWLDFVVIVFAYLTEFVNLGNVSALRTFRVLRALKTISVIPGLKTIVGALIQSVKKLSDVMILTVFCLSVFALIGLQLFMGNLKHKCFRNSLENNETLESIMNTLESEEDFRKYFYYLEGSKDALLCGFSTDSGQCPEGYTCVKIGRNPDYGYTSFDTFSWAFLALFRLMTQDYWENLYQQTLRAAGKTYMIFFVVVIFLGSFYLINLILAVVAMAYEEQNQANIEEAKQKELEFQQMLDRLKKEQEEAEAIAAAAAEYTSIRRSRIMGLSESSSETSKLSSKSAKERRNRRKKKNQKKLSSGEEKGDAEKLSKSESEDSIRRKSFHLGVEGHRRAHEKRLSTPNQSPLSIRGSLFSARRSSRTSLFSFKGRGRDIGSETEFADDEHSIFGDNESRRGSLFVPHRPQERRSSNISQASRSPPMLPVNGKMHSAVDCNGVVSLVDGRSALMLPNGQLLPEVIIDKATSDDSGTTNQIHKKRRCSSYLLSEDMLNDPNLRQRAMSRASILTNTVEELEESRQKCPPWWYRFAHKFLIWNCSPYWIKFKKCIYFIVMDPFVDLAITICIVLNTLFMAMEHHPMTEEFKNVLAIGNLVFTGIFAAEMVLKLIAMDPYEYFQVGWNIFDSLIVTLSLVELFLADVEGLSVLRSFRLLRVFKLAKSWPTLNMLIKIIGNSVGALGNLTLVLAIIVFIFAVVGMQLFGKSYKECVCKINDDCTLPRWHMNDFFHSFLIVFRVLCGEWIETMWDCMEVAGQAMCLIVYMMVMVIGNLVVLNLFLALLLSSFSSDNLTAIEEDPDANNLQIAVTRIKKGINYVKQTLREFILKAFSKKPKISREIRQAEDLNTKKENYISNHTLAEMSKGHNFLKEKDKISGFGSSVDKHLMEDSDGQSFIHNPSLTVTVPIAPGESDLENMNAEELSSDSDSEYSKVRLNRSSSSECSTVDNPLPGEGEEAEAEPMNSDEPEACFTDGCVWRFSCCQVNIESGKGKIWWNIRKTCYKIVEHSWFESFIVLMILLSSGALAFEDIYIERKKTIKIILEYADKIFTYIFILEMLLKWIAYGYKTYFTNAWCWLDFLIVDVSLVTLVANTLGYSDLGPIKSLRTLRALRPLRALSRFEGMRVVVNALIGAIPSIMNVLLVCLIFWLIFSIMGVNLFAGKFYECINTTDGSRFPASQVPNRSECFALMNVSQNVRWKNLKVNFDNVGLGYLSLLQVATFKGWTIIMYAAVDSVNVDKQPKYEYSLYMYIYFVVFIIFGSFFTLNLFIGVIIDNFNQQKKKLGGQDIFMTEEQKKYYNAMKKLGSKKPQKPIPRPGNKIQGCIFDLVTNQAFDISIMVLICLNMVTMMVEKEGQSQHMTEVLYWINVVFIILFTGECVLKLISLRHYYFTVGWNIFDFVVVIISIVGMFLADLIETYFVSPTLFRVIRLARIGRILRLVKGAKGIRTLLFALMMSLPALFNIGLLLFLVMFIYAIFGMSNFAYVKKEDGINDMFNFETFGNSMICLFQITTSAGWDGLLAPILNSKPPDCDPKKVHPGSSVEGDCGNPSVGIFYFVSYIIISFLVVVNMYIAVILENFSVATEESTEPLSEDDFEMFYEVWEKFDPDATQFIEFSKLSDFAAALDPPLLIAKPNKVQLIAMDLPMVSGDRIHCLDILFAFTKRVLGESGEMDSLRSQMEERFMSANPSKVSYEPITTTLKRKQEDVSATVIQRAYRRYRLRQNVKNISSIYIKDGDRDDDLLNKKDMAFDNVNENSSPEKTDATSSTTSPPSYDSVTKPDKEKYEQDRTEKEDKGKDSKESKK

`Cc1cc(-c2cc(C(F)(F)F)ccc2C#N)cc([C@H]2CC[C@]3(CCN(C)C3=O)N2)n1` [Example 22, 2-[2-Methyl-6-[(2R,5R)-7-methyl-6-oxo-1,7-diazaspiro[4.4]-nonan-2-yl]-4-pyridyl]-4-(trifluoromethyl)-benzonitrile hydrochloride]: the IC50 under setting [1] is 158 µM and the IC50 under setting [2] was 1000 µM.
For `Cc1cc(-c2cc(C(F)(F)F)ccc2C#N)cc([C@H]2CC[C@@]3(CCN(C)C3=O)N2)n1` [Example 23, 2-[2-Methyl-6-[(2R,5S)-7-methyl-6-oxo-1,7-diazaspiro[4.4]nonan-2-yl]-4-pyridyl]-4-(trifluoromethyl)benzonitrile hydrochloride] the same measures were 79.4 µM and 631 µM.
As for `Cc1cc(-c2cc(C(F)(F)F)ccc2C(N)=O)cc([C@H]2CC[C@@]3(CCN(C)C3=O)N2)n1` [Example 24, 2-[2-Methyl-6-[(2R,5S)-7-methyl-6-oxo-1,7-diazaspiro[4.4]nonan-2-yl]-4-pyridyl]-4-(trifluoromethyl)benzamide hydrochloride], the IC50 is 398 µM under setting [1] and 1000 µM under setting [2].
On to `Cc1cc(-c2cc(C(F)(F)F)ccc2C(N)=O)cc([C@@H]2CC[C@@]3(CCN(C)C3=O)N2)n1` [Example 25, 2-[2-Methyl-6-[(2S,5S)-7-methyl-6-oxo-1,7-diazaspiro[4.4]nonan-2-yl]-4-pyridyl]-4-(trifluoromethyl)benzamide hydrochloride], for which the IC50 under setting [1] was 1580 µM.
With `Cc1cc(-c2cc(C(F)(F)F)ccc2C(N)=O)cc([C@H]2CC[C@]3(CCN(C)C3=O)N2)n1` [Example 26, 2-[2-Methyl-6-[(2R,5R)-7-methyl-6-oxo-1,7-diazaspiro[4.4]nonan-2-yl]-4-pyridyl]-4-(trifluoromethyl)benzamide hydrochloride], the IC50 under setting [1] was 794 µM.
The same measure, in the same setting: the figure for `Cc1cc(-c2cc(C(F)(F)F)ccc2C(N)=O)cc([C@@H]2CC[C@]3(CCN(C)C3=O)N2)n1` [Example 27, 2-[2-Methyl-6-[(2S,5R)-7-methyl-6-oxo-1,7-diazaspiro[4.4]nonan-2-yl]-4-pyridyl]-4-(trifluoromethyl)benzamide hydrochloride] is 39800 µM.
For `Cc1cc(-c2ccc(C(F)(F)F)cc2)cc([C@H]2CC[C@@]3(CCN(C)C3=O)N2)n1` [Example 28, (2R,5S)-7-Methyl-2-[6-methyl-4-[4-(trifluoromethyl)phenyl]-2-pyridyl]-1,7-diazaspiro[4.4]nonan-6-one hydrochloride], the IC50 under setting [1] is 5.01 µM and the IC50 under setting [2] was 31.6 µM.
The like results for `Cc1cc(-c2ccc(C(F)(F)F)cc2)cc([C@@H]2CC[C@@]3(CCN(C)C3=O)N2)n1` [Example 29, (2S,5S)-7-Methyl-2-[6-methyl-4-[4-(trifluoromethyl)phenyl]-2-pyridyl]-1,7-diazaspiro[4.4]nonan-6-one hydrochloride] were, in that order, 20 µM and 126 µM.
On to `Cc1cc(-c2ccc(C(F)(F)F)cc2)cc([C@@H]2CC[C@]3(CCN(C)C3=O)N2)n1` [Example 30, (2S,5R)-7-Methyl-2-[6-methyl-4-[4-(trifluoromethyl)phenyl]-2-pyridyl]-1,7-diazaspiro[4.4]nonan-6-one hydrochloride], for which the IC50 reads like this: under setting [1], 5.01 µM; under setting [2], 39.8 µM.
For `Cc1cc(-c2ccc(C(F)(F)F)cc2)cc([C@H]2CC[C@]3(CCN(C)C3=O)N2)n1` [Example 31, (2R,5R)-7-Methyl-2-[6-methyl-4-[4-(trifluoromethyl)phenyl]-2-pyridyl]-1,7-diazaspiro[4.4]nonan-6-one hydrochloride] the same measures were 20 µM and 79.4 µM.
For `CN1CC[C@@]2(CC[C@H](c3cc(-c4ccccc4F)ccn3)N2)C1=O` [Example 32, (2R,5S)-2-[4-(2-Fluoro-phenyl)-pyridin-2-yl]-7-methyl-1,7-diaza-spiro[4.4]nonan-6-one hydrochloride] the same measures were 39.8 µM and 251 µM.
The like results for `CN1CC[C@@]2(CC[C@@H](c3cc(-c4ccccc4F)ccn3)N2)C1=O` [Example 33, (2S,5S)-2-[4-(2-Fluoro-phenyl)-pyridin-2-yl]-7-methyl-1,7-diaza-spiro[4.4]nonan-6-one hydrochloride] were, in that order, 39.8 µM and 126 µM.
As to `CN1CC[C@]2(CC[C@@H](c3cc(-c4ccccc4F)ccn3)N2)C1=O` [Example 34, (2S,5R)-2-[4-(2-Fluoro-phenyl)-pyridin-2-yl]-7-methyl-1,7-diaza-spiro[4.4]nonan-6-one hydrochloride], the IC50 under setting [1] was 158 µM and the IC50 under setting [2] was 251 µM.
Regarding `CN1CC[C@]2(CC[C@H](c3cc(-c4ccccc4F)ccn3)N2)C1=O` [Example 35, (2R,5R)-2-[4-(2-Fluoro-phenyl)-pyridin-2-yl]-7-methyl-1,7-diaza-spiro[4.4]nonan-6-one hydrochloride], the IC50 is 100 µM under setting [1] and 398 µM under setting [2].
The like results for `O=C1NCC[C@@]12CC[C@@H](c1cc(-c3ccc(C(F)(F)F)cc3)ccn1)N2` [Example 36, (2S,5S)-2-[4-[4-(Trifluoromethyl)phenyl]-2-pyridyl]-1,7-diazaspiro[4.4]nonan-6-one hydrochloride] were, in that order, 0.794 µM and 20 µM.
In the case of `O=C1NCC[C@@]12CC[C@H](c1cc(-c3ccc(C(F)(F)F)cc3)ccn1)N2` [Example 37, (2R,5S)-2-[4-[4-(Trifluoromethyl)phenyl]-2-pyridyl]-1,7-diazaspiro[4.4]nonan-6-one hydrochloride], the IC50 is 0.794 µM under setting [1] and 25.1 µM under setting [2].
The like results for `O=C1NCC[C@@]12CC[C@@H](c1cc(-c3ccc(C(F)(F)F)cc3F)ccn1)N2` [Example 38, (2S,5S)-2-[4-[2-Fluoro-4-(trifluoro-methyl)phenyl]-2-pyridyl]-1,7-diazaspiro[4.4]nonan-6-one hydrochloride] were, in that order, 7.94 µM and 63.1 µM.
For `O=C1NCC[C@@]12CC[C@H](c1cc(-c3ccc(C(F)(F)F)cc3F)ccn1)N2` [Example 39, (2R,5S)-2-[4-[2-Fluoro-4-(trifluoro-methyl)phenyl]-2-pyridyl]-1,7-diazaspiro[4.4]nonan-6-one hydrochloride] the same measures were 20 µM and 79.4 µM.
For `Cc1cnc([C@@H]2CC[C@@]3(CCN(C)C3=O)N2)cc1-c1ccc(C(F)(F)F)cc1` [Example 40, (2S,5S)-7-Methyl-2-[5-methyl-4-[4-(trifluoromethyl)phenyl]-2-pyridyl]-1,7-diazaspiro[4.4]nonan-6-one hydrochloride] the same measures were 1.58 µM and 50.1 µM.
As to `Cc1cnc([C@H]2CC[C@@]3(CCN(C)C3=O)N2)cc1-c1ccc(C(F)(F)F)cc1` [Example 41, (2R,5S)-7-Methyl-2-[5-methyl-4-[4-(trifluoromethyl)phenyl]-2-pyridyl]-1,7-diazaspiro[4.4]nonan-6-one hydrochloride], the IC50 reads like this: under setting [1], 2 µM; under setting [2], 25.1 µM.
The like results for `Cc1cnc([C@H]2CC[C@]3(CCN(C)C3=O)N2)cc1-c1ccc(C(F)(F)F)cc1` [Example 42, (2R,5R)-7-Methyl-2-[5-methyl-4-[4-(trifluoromethyl)phenyl]-2-pyridyl]-1,7-diazaspiro[4.4]nonan-6-one hydrochloride] were, in that order, 2 µM and 25.1 µM.
The like results for `Cc1cnc([C@@H]2CC[C@]3(CCN(C)C3=O)N2)cc1-c1ccc(C(F)(F)F)cc1` [Example 43, (2S,5R)-7-Methyl-2-[5-methyl-4-[4-(trifluoromethyl)phenyl]-2-pyridyl]-1,7-diazaspiro[4.4]nonan-6-one hydrochloride] were, in that order, 3.16 µM and 39.8 µM.
Turning to `CC1(C)C[C@@]2(CC[C@@H](c3cc(-c4ccc(C(F)(F)F)cc4)ccn3)N2)C(=O)N1` [Example 44, (2S,5S)-8,8-Dimethyl-2-[4-[4-(trifluoromethyl)phenyl]-2-pyridyl]-1,7-diazaspiro[4.4]nonan-6-one hydrochloride], the IC50 under setting [1] was 10 µM and the IC50 under setting [2] was 50.1 µM.
With `CC1(C)C[C@@]2(CC[C@H](c3cc(-c4ccc(C(F)(F)F)cc4)ccn3)N2)C(=O)N1` [Example 45, (2R,5S)-8,8-Dimethyl-2-[4-[4-(trifluoromethyl)phenyl]-2-pyridyl]-1,7-diazaspiro[4.4]nonan-6-one hydrochloride], the IC50 was 3.16 µM under setting [1] and 39.8 µM under setting [2].
The like results for `CC1(C)C[C@]2(CC[C@H](c3cc(-c4ccc(C(F)(F)F)cc4)ccn3)N2)C(=O)N1` [Example 46, (2R,5R)-8,8-Dimethyl-2-[4-[4-(trifluoromethyl)phenyl]-2-pyridyl]-1,7-diazaspiro[4.4]nonan-6-one hydrochloride] were, in that order, 0.794 µM and 10 µM.
The like results for `CC1(C)C[C@]2(CC[C@@H](c3cc(-c4ccc(C(F)(F)F)cc4)ccn3)N2)C(=O)N1` [Example 47, (2S,5R)-8,8-Dimethyl-2-[4-[4-(trifluoromethyl)phenyl]-2-pyridyl]-1,7-diazaspiro[4.4]nonan-6-one hydrochloride] were, in that order, 12.6 µM and 31.6 µM.
